IC50 data for 30 compounds are collected here from patent US12479847B2 (DANA-FARBER CANCER INSTITUTE, INC., priority 2019, dated 2025).

The first assay deals with human LRRK2 kinase (Homo sapiens, UniProt Q5S007). The note with it: LRRK2, ADP-Glo, ATP 10 μM, 60 minutes at 25° C.
human LRRK2 kinase, sequence (Q5S007 whole entry): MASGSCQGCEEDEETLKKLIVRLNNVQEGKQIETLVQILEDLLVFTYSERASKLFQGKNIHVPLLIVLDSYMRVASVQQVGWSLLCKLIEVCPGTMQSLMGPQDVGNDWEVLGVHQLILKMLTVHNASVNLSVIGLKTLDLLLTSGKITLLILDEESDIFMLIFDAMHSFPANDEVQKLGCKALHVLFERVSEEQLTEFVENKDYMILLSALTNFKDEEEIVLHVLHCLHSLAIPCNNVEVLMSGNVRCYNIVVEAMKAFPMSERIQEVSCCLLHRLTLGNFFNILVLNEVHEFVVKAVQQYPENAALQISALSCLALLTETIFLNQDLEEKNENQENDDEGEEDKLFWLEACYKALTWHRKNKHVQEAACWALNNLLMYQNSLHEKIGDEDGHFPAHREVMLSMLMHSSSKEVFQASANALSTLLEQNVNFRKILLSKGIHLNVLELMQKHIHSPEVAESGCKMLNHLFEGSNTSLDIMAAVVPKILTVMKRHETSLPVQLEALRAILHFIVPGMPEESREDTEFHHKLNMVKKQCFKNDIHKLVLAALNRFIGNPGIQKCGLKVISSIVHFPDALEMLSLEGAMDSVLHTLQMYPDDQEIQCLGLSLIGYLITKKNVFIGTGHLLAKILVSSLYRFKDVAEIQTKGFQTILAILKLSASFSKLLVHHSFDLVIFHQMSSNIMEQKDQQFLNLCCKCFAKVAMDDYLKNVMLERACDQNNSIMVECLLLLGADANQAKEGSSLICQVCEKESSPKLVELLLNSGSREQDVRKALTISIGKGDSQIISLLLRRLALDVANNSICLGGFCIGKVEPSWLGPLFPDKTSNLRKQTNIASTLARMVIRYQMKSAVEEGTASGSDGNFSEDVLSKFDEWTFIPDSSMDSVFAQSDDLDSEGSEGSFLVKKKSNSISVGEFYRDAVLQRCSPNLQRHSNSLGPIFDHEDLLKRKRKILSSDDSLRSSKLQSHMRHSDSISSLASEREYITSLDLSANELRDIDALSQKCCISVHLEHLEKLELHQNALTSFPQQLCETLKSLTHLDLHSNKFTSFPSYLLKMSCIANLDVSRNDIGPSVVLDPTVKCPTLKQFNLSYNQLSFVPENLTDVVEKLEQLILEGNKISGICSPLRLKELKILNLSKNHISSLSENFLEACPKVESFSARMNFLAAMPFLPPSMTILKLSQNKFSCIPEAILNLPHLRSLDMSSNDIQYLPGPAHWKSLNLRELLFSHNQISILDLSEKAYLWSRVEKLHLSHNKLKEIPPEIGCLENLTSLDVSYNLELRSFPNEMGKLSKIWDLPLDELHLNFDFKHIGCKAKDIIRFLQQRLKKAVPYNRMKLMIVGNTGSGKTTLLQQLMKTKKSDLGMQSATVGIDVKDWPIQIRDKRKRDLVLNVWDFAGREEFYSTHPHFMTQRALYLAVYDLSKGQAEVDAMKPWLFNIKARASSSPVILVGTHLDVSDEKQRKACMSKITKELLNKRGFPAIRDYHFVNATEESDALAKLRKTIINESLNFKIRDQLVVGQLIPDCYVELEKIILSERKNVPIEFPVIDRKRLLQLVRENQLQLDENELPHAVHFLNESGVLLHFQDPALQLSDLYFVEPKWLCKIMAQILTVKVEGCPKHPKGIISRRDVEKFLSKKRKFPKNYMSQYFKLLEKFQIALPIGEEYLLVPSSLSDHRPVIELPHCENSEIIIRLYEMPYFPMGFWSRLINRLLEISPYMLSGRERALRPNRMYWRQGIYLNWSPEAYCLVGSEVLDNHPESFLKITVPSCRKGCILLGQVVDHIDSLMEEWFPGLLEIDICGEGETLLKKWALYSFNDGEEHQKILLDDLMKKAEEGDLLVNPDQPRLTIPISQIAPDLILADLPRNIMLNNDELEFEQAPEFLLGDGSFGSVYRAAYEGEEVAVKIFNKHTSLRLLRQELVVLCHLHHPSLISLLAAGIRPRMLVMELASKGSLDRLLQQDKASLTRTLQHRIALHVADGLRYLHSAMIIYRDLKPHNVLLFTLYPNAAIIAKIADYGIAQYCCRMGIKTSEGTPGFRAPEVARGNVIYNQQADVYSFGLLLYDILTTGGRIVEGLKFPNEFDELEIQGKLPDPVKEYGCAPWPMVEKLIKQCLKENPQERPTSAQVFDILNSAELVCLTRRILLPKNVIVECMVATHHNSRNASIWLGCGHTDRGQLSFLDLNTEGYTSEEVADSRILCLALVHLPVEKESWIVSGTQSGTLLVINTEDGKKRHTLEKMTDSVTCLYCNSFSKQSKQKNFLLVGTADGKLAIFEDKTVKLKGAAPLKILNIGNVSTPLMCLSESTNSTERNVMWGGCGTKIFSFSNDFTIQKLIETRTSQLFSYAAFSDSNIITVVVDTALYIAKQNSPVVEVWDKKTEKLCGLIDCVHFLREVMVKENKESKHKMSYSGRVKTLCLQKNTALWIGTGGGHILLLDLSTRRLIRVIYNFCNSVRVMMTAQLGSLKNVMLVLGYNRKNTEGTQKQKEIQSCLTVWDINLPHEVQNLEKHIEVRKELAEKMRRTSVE
Consider `CCCNc1nc(Nc2ccc(S(=O)(=O)N3CCOCC3)cc2OC)nc2[nH]cc(Cl)c12` [Compound 18, 5-chloro-N2-(2-methoxy-4-(morpholinosulfonyl)phenyl)-N4-propyl-7H-pyrrolo[2,3-d]pyrimidine-2,4-diamine], for which the IC50 lay in the range of 100 to 1000 nM.
Compound `COc1cc(P2(=O)CCN(C(C)=O)CC2)ccc1Nc1nc(NC2CCC2)c2c(Cl)c[nH]c2n1` [Compound 92] yielded an IC50 of 10 to 100 nM.
For `O=C(c1ccc(Nc2nc(NC3CCCCC3)c3c(Cl)c[nH]c3n2)c2c1CCO2)N1CCC(N2CCOCC2)CC1` [Compound 80, (7-((5-chloro-4-(cyclohexylamino)-7H-pyrrolo[2,3-d]pyrimidin-2-yl)amino)-2,3-dihydrobenzofuran-4-yl)(4-morpholinopiperidin-1-yl)methanone], the IC50 lay in the range of 100 to 1000 nM.
Still for that read-out and setting: the value for `COc1cc(S(=O)(=O)N2CCOCC2)ccc1Nc1nc(NCCS(C)(=O)=O)c2c(Cl)c[nH]c2n1` [Compound 68, 5-chloro-N2-(2-methoxy-4-(morpholinosulfonyl)phenyl)-N4-(2-(methylsulfonyl)ethyl)-7H-pyrrolo[2,3-d]pyrimidine-2,4-diamine] was 10 to 100 nM; that for `COc1cc(S(=O)(=O)N2CCC(N3CCOCC3)CC2)ccc1Nc1nc(NC2CCC2)c2c(Cl)c[nH]c2n1` [Compound 28, 5-chloro-N4-cyclobutyl-N2-(2-methoxy-4-((4-morpholinopiperidin-1-yl)sulfonyl)phenyl)-7H-pyrrolo[2,3-d]pyrimidine-2,4-diamine] was 100 to 1000 nM; that for `COc1cc(S(=O)(=O)N2CCC(N3CCOCC3)CC2)ccc1Nc1nc(NCC2CCCC2)c2c(Cl)c[nH]c2n1` [Compound 67, 5-chloro-N4-(cyclopentylmethyl)-N2-(2-methoxy-4-((4-morpholinopiperidin-1-yl)sulfonyl)phenyl)-7H-pyrrolo[2,3-d]pyrimidine-2,4-diamine] was 100 to 1000 nM.
For `CCNc1nc(Nc2ccc(C(=O)N3CCC(N4CCOCC4)CC3)c3c2OCC3)nc2[nH]cc(Cl)c12` [Compound 105, (7-((5-chloro-4-(ethylamino)-7H-pyrrolo[2,3-d]pyrimidin-2-yl)amino)-2,3-dihydrobenzofuran-4-yl)(4-morpholinopiperidin-1-yl)methanone], the IC50 was < 10 nM.
With `COc1cc(S(C)(=O)=O)ccc1Nc1nc(N[C@H]2CCOC2)c2c(Cl)c[nH]c2n1` [Compound 94, (S)-5-chloro-N2-(2-methoxy-4-(methylsulfonyl)phenyl)-N4-(tetrahydrofuran-3-yl)-7H-pyrrolo[2,3-d]pyrimidine-2,4-diamine], the IC50 was < 10 nM.
Consider `COc1cc(P2(=O)CCN(C3CC3)CC2)ccc1Nc1nc(NCC(C)C)c2c(Cl)c[nH]c2n1` [Compound 96, 4-(4-((5-chloro-4-(isobutylamino)-7H-pyrrolo[2,3-d]pyrimidin-2-yl)amino)-3-methoxyphenyl)-1-cyclopropyl-1,4-azaphosphinane 4-oxide], for which the IC50 lay in the range of 100 to 1000 nM.
For the compound `COc1cc(S(C)(=O)=O)ccc1Nc1nc(NC2CCOCC2)c2c(Cl)c[nH]c2n1` [Compound 63, 5-chloro-N2-(2-methoxy-4-(methylsulfonyl)phenyl)-N4-(tetrahydro-2H-pyran-4-yl)-7H-pyrrolo[2,3-d]pyrimidine-2,4-diamine], the IC50 lay in the range of 10 to 100 nM.
On to `CCCCNc1nc(Nc2ccc(S(=O)(=O)N3CCC(N4CCOCC4)CC3)cc2OC)nc2[nH]cc(Cl)c12` [Compound 72, N4-butyl-5-chloro-N2-(2-methoxy-4-((4-morpholinopiperidin-1-yl)sulfonyl)phenyl)-7H-pyrrolo[2,3-d]pyrimidine-2,4-diamine], for which the IC50 was 10 to 100 nM.
For `CCC(C)Nc1nc(Nc2ccc(S(=O)(=O)N3CCC(N4CCOCC4)CC3)cc2OC)nc2[nH]cc(Cl)c12` (stereo in doubt) [Compound 52, (S)—N4-(sec-butyl)-5-chloro-N2-(2-methoxy-4-((4-morpholinopiperidin-1-yl)sulfonyl)phenyl)-7H-pyrrolo[2,3-d]pyrimidine-2,4-diamine], the IC50 is 10 to 100 nM.
In turn, `CCCNc1nc(Nc2ccc(C(=O)N3CCC(N4CCOCC4)CC3)c3c2OCC3)nc2[nH]cc(Cl)c12` [Compound 102, (7-((5-chloro-4-(propylamino)-7H-pyrrolo[2,3-d]pyrimidin-2-yl)amino)-2,3-dihydrobenzofuran-4-yl)(4-morpholinopiperidin-1-yl)methanone] registered an IC50 of 10 to 100 nM.
`O=C(c1ccc(Nc2nc(NC3CCCCC3)c3c(Cl)c[nH]c3n2)c2c1CCO2)N1CCOCC1` [Compound 83, (7-((5-chloro-4-(cyclohexylamino)-7H-pyrrolo[2,3-d]pyrimidin-2-yl)amino)-2,3-dihydrobenzofuran-4-yl)(morpholino)methanone] gave an IC50 of 100 to 1000 nM.
Still for that read-out and setting: next, `O=C(c1ccc(Nc2nc(NC3CCC3)c3c(Cl)c[nH]c3n2)c2c1OCCO2)N1CCC(N2CCOCC2)CC1` [Compound 4, (8-((5-chloro-4-(cyclobutylamino)-7H-pyrrolo[2,3-d]pyrimidin-2-yl)amino)-2,3-dihydrobenzo[b][1,4]dioxin-5-yl)(4-morpholinopiperidin-1-yl)methanone]: < 10 nM.
`O=C(c1ccc(Nc2nc(NC3CC3)c3c(Cl)c[nH]c3n2)c2c1OCCO2)N1CCC(N2CCOCC2)CC1` [Compound 3, (8-((5-chloro-4-(cyclopropylamino)-7H-pyrrolo[2,3-d]pyrimidin-2-yl)amino)-2,3-dihydrobenzo[b][1,4]dioxin-5-yl)(4-morpholinopiperidin-1-yl)methanone]: the IC50 was < 10 nM.
The same measure, in the same setting: the value for `O=C(c1ccc(Nc2nc(N[C@H]3CCOC3)c3c(Cl)c[nH]c3n2)c2c1OCCO2)N1CCOCC1` [Compound 95] was < 10 nM.
The same measure, in the same setting: next, `CC[C@@H](C)Nc1nc(Nc2ccc(S(=O)(=O)N3CCC(N4CCOCC4)CC3)cc2OC)nc2[nH]cc(Cl)c12` [Compound 48, (R)—N4-(sec-butyl)-5-chloro-N2-(2-methoxy-4-((4-morpholinopiperidin-1-yl)sulfonyl)phenyl)-7H-pyrrolo[2,3-d]pyrimidine-2,4-diamine]: 100 to 1000 nM; `COCCNc1nc(Nc2ccc(S(C)(=O)=O)cc2OC)nc2[nH]cc(Cl)c12` [Compound 23, 5-chloro-N2-(2-methoxy-4-(methylsulfonyl)phenyl)-N4-(2-methoxyethyl)-7H-pyrrolo[2,3-d]pyrimidine-2,4-diamine]: < 10 nM.
Turning to `O=C(c1ccc(Nc2nc(NCC3CC3)c3c(Cl)c[nH]c3n2)c2c1OCCO2)N1CCOCC1` [Compound 65, (8-((5-chloro-4-((cyclopropylmethyl)amino)-7H-pyrrolo[2,3-d]pyrimidin-2-yl)amino)-2,3-dihydrobenzo[b][1,4]dioxin-5-yl)(morpholino)methanone], the IC50 is < 10 nM.
Still for that read-out and setting: the value for `COc1cc(P2(=O)CCN(C(C)=O)CC2)ccc1Nc1nc(NC2CC2)c2c(Cl)c[nH]c2n1` [Compound 91, 1-(4-(4-((5-chloro-4-(cyclopropylamino)-7H-pyrrolo[2,3-d]pyrimidin-2-yl)amino)-3-methoxyphenyl)-4-oxido-1,4-azaphosphinan-1-yl)ethan-1-one] was < 10 nM.
Still for that read-out and setting: the value for `CC[C@@H](C)Nc1nc(Nc2ccc(S(C)(=O)=O)cc2OC)nc2[nH]cc(Cl)c12` [Compound 49, (R)—N4-(sec-butyl)-5-chloro-N2-(2-methoxy-4-(methylsulfonyl)phenyl)-7H-pyrrolo[2,3-d]pyrimidine-2,4-diamine] was 10 to 100 nM.
On the same count and under the same terms, next, `COc1cc(S(=O)(=O)N2CCOCC2)ccc1Nc1nc(NC2CC2)c2c(Cl)c[nH]c2n1` [Compound 24, 5-chloro-N4-cyclopropyl-N2-(2-methoxy-4-(morpholinosulfonyl)phenyl)-7H-pyrrolo[2,3-d]pyrimidine-2,4-diamine]: 10 to 100 nM; `CNc1nc(Nc2ccc(P3(=O)CCN(C(C)=O)CC3)cc2OC)nc2[nH]cc(Cl)c12` [Compound 82, 1-(4-(4-((5-chloro-4-(methylamino)-7H-pyrrolo[2,3-d]pyrimidin-2-yl)amino)-3-methoxyphenyl)-4-oxido-1,4-azaphosphinan-1-yl)ethan-1-one]: < 10 nM; `COc1cc(P2(=O)CCN(C3CC3)CC2)ccc1Nc1nc(NC2CCCCC2)c2c(Cl)c[nH]c2n1` [Compound 93, 4-(4-((5-chloro-4-(cyclohexylamino)-7H-pyrrolo[2,3-d]pyrimidin-2-yl)amino)-3-methoxyphenyl)-1-cyclopropyl-1,4-azaphosphinane 4-oxide]: 100 to 1000 nM.
In turn, `COc1cc(P2(=O)CCN(C3CC3)CC2)ccc1Nc1nc(NC2CC2)c2c(Cl)c[nH]c2n1` [Compound 90, 4-(4-((5-chloro-4-(cyclopropylamino)-7H-pyrrolo[2,3-d]pyrimidin-2-yl)amino)-3-methoxyphenyl)-1-cyclopropyl-1,4-azaphosphinane 4-oxide] returned an IC50 of 10 to 100 nM.
Regarding `COCCNc1nc(Nc2ccc(S(=O)(=O)N3CCOCC3)cc2OC)nc2[nH]cc(Cl)c12` [Compound 21, 5-chloro-N2-(2-methoxy-4-(morpholinosulfonyl)phenyl)-N4-(2-methoxyethyl)-7H-pyrrolo[2,3-d]pyrimidine-2,4-diamine], the IC50 is < 10 nM.
For `CCNc1nc(Nc2ccc(C(=O)N3CCC(N4CCOCC4)CC3)c3c2OCCO3)nc2[nH]cc(Cl)c12` [Compound 1, (8-((5-chloro-4-(ethylamino)-7H-pyrrolo[2,3-d]pyrimidin-2-yl)amino)-2,3-dihydrobenzo[b][1,4]dioxin-5-yl)(4-morpholinopiperidin-1-yl)methanone], the IC50 is < 10 nM.
Turning to `COc1cc(S(C)(=O)=O)ccc1Nc1nc(NCC(C)C)c2c(Cl)c[nH]c2n1` [Compound 32, 5-chloro-N4-isobutyl-N2-(2-methoxy-4-(methylsulfonyl)phenyl)-7H-pyrrolo[2,3-d]pyrimidine-2,4-diamine], the IC50 is 100 to 1000 nM.

Staying with this assay, now noted: read-out: LRRK2; ADP-Glo, ATP 10 μM, 60 minutes at 25° C.
For the compound `CCC(C)Nc1nc(Nc2ccc(S(=O)(=O)N3CCOCC3)cc2OC)nc2[nH]cc(Cl)c12` (stereo in doubt) [Compound 51, (S)—N4-(sec-butyl)-5-chloro-N2-(2-methoxy-4-(morpholinosulfonyl)phenyl)-7H-pyrrolo[2,3-d]pyrimidine-2,4-diamine], the IC50 lay within 100 to 1000 nM.
